Assay results reported in PMC5147771, “High-Resolution Genetics Identifies the Lipid Transfer Protein Sec14p as Target for Antifungal Ergolines” (PLoS Genetics, 2016).
Read-outs that look alike come from different tables or passages of the source.

Columns and labels:
C. neoformans ATCC 36556 = assay: C. neoformans growth inhibition (CLSI M27-A3 broth microdilution); format: cell-based; conditions: for MIC: Cryptococcus neoformans, ATCC36556, 72 h
Description: (§1) Sec14p is reported to be essential for virulence as well as for growth in C. neoformans. The S. cerevisiae and C. neoformans proteins show 53% similarity by pair-wise alignment with higher conservation of the residues in the lipid-binding pocket (S2 Fig). Furthermore, three of the four sites identified to be critical for NGx04 sensitivity, are conserved (S2 Fig). In combination with the current high unmet medical need related to Cryptococcus infections we prioritized testing of NGx04 and 18 related ergoline scaffold analogs against this pathogen. Two clinical isolates of C. neoformans (ATCC 36556 and ATCC 90113) were plated in triplicates on increasing drug concentrations and MIC-2 (50% inhibition) and MIC-0 (no visible fungal growth) concentrations were scored after 72 hrs. (Fig 5).
(§2) C. neoformans strains ATCC 36556, a lung isolate, and ATCC 90113, a cerebrospinal fluid isolate, were purchased from ATCC, Manassas, VA (USA). BPY22 was obtained from.
(§3) Antifungal susceptibility testing was conducted according to the Clinical and Laboratory Standards Institute (CLSI) guidelines for broth microdilution assay M27-A3. Testing was performed in RPMI-1640 (HyClone) with 2.05 mM glutamine, phenol red, without bicarbonate and buffered with 0.165 mol/l 3-(N-morpholino) propanesulfonic acid (MOPS). The medium was adjusted to pH 7.0 and sterilized with a 0.2 μm filter. Two endpoints were recorded: MIC-0 (complete inhibition with no visible fungal growth) and MIC-2 (prominent inhibition corresponding to >50% growth reduction).

C. neoformans ATCC 90113 = assay: as above; format: cell-based; conditions: 72 h, triplicate values printed singly; for MIC: Cryptococcus neoformans, ATCC90113, 72 h
Description: as §1, §2, §3

[1] = Artificial membrane permeability assay; format: in vitro ADME; conditions: PAMPA, to assess blood brain barrier penetration
Description: Invasion of the central nervous system by C. neoformans is a prerequisite for fungal meningitis. We thus performed artificial membrane permeability assays in order to assess the potential of the cryptococcal active compounds to penetrate the blood brain barrier (S7 Fig). […] High permeability of ergolines is expected, as members of the ergoline class are used as psychedelic narcotics since their discovery.
Metabolic stability was determined as described previously on a fully automated platform, the artificial membrane permeability assays was performed as described previously
Supplementary file pgen.1006374.s007.eps: S7 Fig Physicochemical properties of ergolines. Rat liver microsome and artificial membrane permeability assay. NGx04 and close analogues were tested for metabolic stability (CYP MetCL) and artificial membrane permeability (logPAMPA) in duplicates. Value pairs are color coded and binning is indicated. (EPS) Click here for additional data file.

S. cerevisiae BY4741 = assay: Phosphatidylinositol (PI) and phosphatidylcholine (PC) competition growth assay; format: cell-based; conditions: medium with 200 μM PI or 200 μM PC
Description: To test this hypothesis, the S. cerevisisae x-ray structure of Sec14p was used to dock the NGx04 ligand into the lipid-binding cavity (Fig 3B). In the resulting docking model, the ester moiety of the ligand formed an H-bond with Y111 while the ergoline amine formed an H-bond with T175. The ergoline moiety also made van der Waals interactions with the residues Y122, Y151, S173, M177 and F212. The calculated docking model was in agreement with the experimental data from the mutagenesis study, as three of the four identified resistance conferring mutations were directly involved in ligand interactions (Y111, Y151 and S173) and the identified V154 residue, although not directly involved in ligand interactions, was only 4.5 Å away from NGx04. The model outlines that a larger residue at this position like Isoleucine would be deleterious for ligand binding. As our docking experiment was biased towards the lipid-binding cavity we aimed at further supporting evidence for NGx04 binding in this protein pocket. To do so we tested if NGx04 would compete for phospholipid-binding in the Sec14p cavity. […]
S. cerevisiae BY4741 (Open Biosystems) was grown in YPD medium in the absence or presence of additional phosphatidylinositol or phosphatidylcholine (200 μM each, Sigma-Aldrich 79401 or P3556, respectively). OD600 values of exponentially growing yeast cultures were recorded with a robotic system. […]

[2] = system: S. cerevisiae deletion strains; assay: Single strain growth inhibition of deletion strains (turbidity OD600); format: cell-based; conditions: Saccharomyces cerevisiae, 24 h
MTS cytotoxicity assay = format: cell-based; conditions: human, HepG2 cells, triplicates, logistic regression
Description: (§4) One key requirement of antifungal medicines is selective inhibition of the pathogen over the mammalian host. To explore potential undesired activity of NGx04 against mammalian cells we used the Cancer Cell Line Encyclopedia CCLE, a collection of 512 human cancer cell lines (broadinstitute.org/ccle). Dose-response curves for NGx04 were generated in a proliferation assay and IC50 values determined. […] Since HepG2 cells are known to be a suitable tool to profile toxicity of compounds [40], we used this liver-derived line to assess cytotoxicity of NGx04. […] 16 of 21 amino acid residues within a 5 Å radius from any atom of the docked Ngx04 ligand were not conserved between the two proteins. Critical differences in the active site of the human protein are the residues F178, C128, I151 and L186 (corresponding to S201, Y151, T175 and M209 in yeast) which form a smaller and more hydrophobic pocket compared to the yeast protein (Fig 4C). […]
(§5) Fig 4 Fungal selectivity. […] A) Dose-response curves for NGx04 were generated in growth inhibition assay and IC50 values determined in duplicates. […]
(§6) Profiling across the Cancer Cell Line Encyclopedia was performed as described previously. MTS toxicity was determined using a CellTiter 96 AQueous One Solution Cell Proliferation Assay kit from Peomega.

[3] = system: 512 human cancer cell lines; assay: Cancer Cell Line Encyclopedia proliferation assay; format: cell-based
Description: as §4, §5, §6

[4] = system: wild type yeast carrying plasmid SEC14 variants; assay: Growth inhibition titration of yeast re-transformed with plasmids coding for SEC14 variants; conditions: Saccharomyces cerevisiae, 18 h
Description: A plasmid containing the wild type copy of SEC14 was used as control to exclude resistance due to SEC14 gene copy-number effects.
B) The plasmids coding for various SEC14 proteins were re-transformed into a fresh wild type yeast strain and serial dilutions of the cultures spotted on either 150 μM of NGx04 or DMSO control, incubated for 3 days at 30°C and scored for growth. C) The strains were grown for 24 h in the presence of increasing concentrations of NGx04 and growth measured by turbidity (OD600). Duplicate values were determined and the 18 h time point was used for logistic regression.

S. cerevisiae = assay: High-throughput screen of compound archive against S. cerevisiae; format: cell-based; conditions: Saccharomyces cerevisiae; validated hit of high-throughput screen
[5] = 50% inhibition, 72 h, triplicate values printed singly, read-out: ATCC36556 MIC-2
[6] = no visible fungal growth, 72 h, triplicate values printed singly, read-out: ATCC36556 MIC-0
[7] = 50% inhibition, read-out: ATCC90113 MIC-2
[8] = no visible fungal growth, read-out: ATCC90113 MIC-0

## CC(C)N1CC(C(=O)O)CC2c3cccc4c3C(CC21)CN4C(=O)OC(C)(C)C (stereo not drawn) [NGx13]
C. neoformans ATCC 36556; 50% inhibition, 72 h, triplicate values printed singly
  ATCC36556 MIC-2: 13 µg/mL
C. neoformans ATCC 36556; [5]
  MIC: 25 µg/mL
C. neoformans ATCC 36556; [6]
  MIC: > 50 µg/mL
C. neoformans ATCC 90113; 50% inhibition
  ATCC90113 MIC-2: 50 µg/mL
C. neoformans ATCC 90113; [7]
  MIC: > 50 µg/mL
C. neoformans ATCC 90113; [8]
  MIC: > 50 µg/mL
[1]
  artificial membrane permeability: exception

## COC(=O)C1CC2c3ccc([N+](=O)[O-])c4c3C(CC2N(C)C1)CN4C(=O)OCC(Cl)(Cl)Cl (stereo not drawn) [NGx04]
S. cerevisiae BY4741
  effect of excess PI or PC on growth inhibition: alleviate NGx04-mediated growth inhibition
[2]; read-out: IC50, strain KES1/kes1
  IC50: 18.9 µM
[2]; read-out: IC50, strain SEC14/sec14
  IC50: 6.3 µM
[2]; read-out: IC50, strain ho/ho
  IC50: 11.8 µM
[2]; read-out: IC50, strain itr1/itr1
  IC50: 5.2 µM
[2]; read-out: IC50, strain spo14/spo14
  IC50: 4.4 µM
[2]; read-out: IC50, strain srf1/srf1
  IC50: 3.8 µM
MTS cytotoxicity assay
  IC50: 158 µM
[3]; share of cell lines, sensitive defined by Amax <50% and IC50 <30 μM
  cell lines sensitive: one fourth
[3]; share of the tested CCLE cell lines
  cell lines not notably affected / not significantly inhibited: 76%
[4]; read-out: IC50, SEC14 S173A
  IC50: 318 µM
[4]; read-out: IC50, SEC14 V154I
  IC50: 225 µM
[4]; read-out: IC50, SEC14 WT plasmid
  IC50: 41.1 µM
S. cerevisiae
  IC50: < 20 µM
C. neoformans ATCC 36556; [5]
  MIC: 25 µg/mL
C. neoformans ATCC 36556; [6]
  MIC: 50 µg/mL
C. neoformans ATCC 36556; clinical isolates ATCC 36556 and ATCC 90113, tested dose range
  C. neoformans growth inhibition (in words): inhibit C. neoformans growth
C. neoformans ATCC 36556; no visible fungal growth, 72 h, triplicate values printed singly
  ATCC36556 MIC-0: > 50 µg/mL
C. neoformans ATCC 90113; [7]
  MIC: 25 µg/mL
C. neoformans ATCC 90113; [8]
  MIC: > 50 µg/mL
